According to patent US9611269B2, “Azetidinyl phenyl, pyridyl or pyrazinyl carboxamide derivatives as JAK inhibitors” (Incyte Corporation, priority 2011, dated 2017):

Experiments:
Assay type in all cases: biochemical
[1] = molecular target: human JAK1 (a.a. 837-1142) catalytic domain (Homo sapiens, UniProt P23458); experiment: In vitro JAK kinase assay (HTRF, 1 mM ATP), JAK1; conditions: at 1 mM ATP;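 further: kinase activity followed as phosphorylation of a biotin-tagged peptide, detected by HTRF with Eu-labelled anti-phosphotyrosine antibody and SA-APC, after 1 h reaction at room temperature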
Description: (§1) The catalytic activity of JAK1, JAK2 or JAK3 was assayed by measuring the phosphorylation of a biotinylated peptide. The phosphorylated peptide was detected by homogenous time resolved fluorescence (HTRF). […] Reactions were carried out at room temperature for 1 hour and then stopped with 20 μL 45 mM EDTA, 300 nM SA-APC, 6 nM Eu-Py20 in assay buffer (Perkin Elmer, Boston, Mass.). Binding to the Europium labeled antibody took place for 40 minutes and HTRF signal was measured on a Fusion plate reader (Perkin Elmer, Boston, Mass.).

[2] = system: human JAK1 (a.a. 837-1142) catalytic domain; experiment: In vitro JAK kinase assay (HTRF, 1 mM ATP), JAK1; conditions: ratio of JAK2 IC50 to JAK1 IC50 at 1 mM ATP;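 further: kinase activity followed as phosphorylation of a biotin-tagged peptide, detected by HTRF with Eu-labelled anti-phosphotyrosine antibody and SA-APC, after 1 h reaction at room temperature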
Description: as §1

[3] = molecular target: human JAK2 (a.a. 828-1132) catalytic domain (Homo sapiens (Human), UniProt O60674); experiment: In vitro JAK kinase assay (HTRF, 1 mM ATP), JAK2; conditions: at 1 mM ATP
Chain of human JAK2 (a.a. 828-1132) catalytic domain (O60674 828-1132): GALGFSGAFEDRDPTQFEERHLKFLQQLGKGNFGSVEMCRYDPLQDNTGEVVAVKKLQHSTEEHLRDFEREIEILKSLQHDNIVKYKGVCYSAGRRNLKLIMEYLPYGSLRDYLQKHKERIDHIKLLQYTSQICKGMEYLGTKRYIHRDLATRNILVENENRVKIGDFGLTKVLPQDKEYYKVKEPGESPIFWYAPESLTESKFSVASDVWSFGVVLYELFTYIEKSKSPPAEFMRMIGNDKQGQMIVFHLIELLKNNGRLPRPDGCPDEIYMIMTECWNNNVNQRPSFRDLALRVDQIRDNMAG
Description: as §1

Chain of human JAK1 (a.a. 837-1142) catalytic domain (Homo sapiens, UniProt P23458) (P23458 whole entry, looked up, the tested form may be a part): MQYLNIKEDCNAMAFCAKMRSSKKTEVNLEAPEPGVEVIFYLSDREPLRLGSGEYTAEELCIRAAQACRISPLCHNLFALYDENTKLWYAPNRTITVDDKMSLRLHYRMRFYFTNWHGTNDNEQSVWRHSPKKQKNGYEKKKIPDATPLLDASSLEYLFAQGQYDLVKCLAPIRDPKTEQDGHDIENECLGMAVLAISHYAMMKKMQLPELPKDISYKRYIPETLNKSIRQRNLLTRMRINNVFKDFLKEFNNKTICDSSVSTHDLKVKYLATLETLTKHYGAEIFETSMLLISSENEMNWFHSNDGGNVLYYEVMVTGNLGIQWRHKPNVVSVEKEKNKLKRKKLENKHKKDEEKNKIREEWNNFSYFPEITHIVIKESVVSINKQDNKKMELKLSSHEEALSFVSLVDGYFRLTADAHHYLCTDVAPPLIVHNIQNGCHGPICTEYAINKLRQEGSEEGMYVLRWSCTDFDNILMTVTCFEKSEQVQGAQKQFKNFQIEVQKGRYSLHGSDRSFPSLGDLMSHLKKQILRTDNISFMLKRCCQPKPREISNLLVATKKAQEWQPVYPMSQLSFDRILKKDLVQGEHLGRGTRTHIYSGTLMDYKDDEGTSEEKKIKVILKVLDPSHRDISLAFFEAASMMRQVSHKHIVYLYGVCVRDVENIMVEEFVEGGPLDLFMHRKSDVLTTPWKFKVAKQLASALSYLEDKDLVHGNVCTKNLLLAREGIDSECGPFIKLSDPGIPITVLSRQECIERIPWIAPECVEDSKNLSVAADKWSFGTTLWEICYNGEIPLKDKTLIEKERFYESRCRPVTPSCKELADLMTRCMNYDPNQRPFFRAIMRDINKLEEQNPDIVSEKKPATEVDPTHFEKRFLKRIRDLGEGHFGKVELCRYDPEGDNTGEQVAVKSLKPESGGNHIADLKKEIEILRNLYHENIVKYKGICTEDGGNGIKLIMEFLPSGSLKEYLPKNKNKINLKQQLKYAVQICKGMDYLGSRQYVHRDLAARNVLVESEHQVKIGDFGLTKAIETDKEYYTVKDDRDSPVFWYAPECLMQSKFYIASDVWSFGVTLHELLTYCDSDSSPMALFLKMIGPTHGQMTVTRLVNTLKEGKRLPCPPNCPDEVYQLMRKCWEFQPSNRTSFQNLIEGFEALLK

Row | Compound | IC50 [1] [nM] | JAK2/JAK1 [2] | IC50 [3] [nM]
1 | N#CCC1(n2cc(-c3ncnc4[nH]ccc34)cn2)CN(c2cnc(C(=O)NC3(C(F)(F)F)CC3)cn2)C1 [Example 33, 5-{3-(Cyanomethyl)-3-[4-(7H-pyrrolo[2,3-d]pyrimidin-4-yl)-1H-pyrazol-1-yl]azetidin-1-yl}-N-[1-(trifluoromethyl)cyclopropyl]pyrazine-2-carboxamide] | < 10 | A (A means greater than or equal to 10) | 10 to 40
2 | C[C@H](NC(=O)c1cnc(N2CC(CC#N)(n3cc(-c4ccnc5[nH]ccc45)cn3)C2)cn1)C(F)(F)F [Example 35, 5-{3-(Cyanomethyl)-3-[4-(1H-pyrrolo[2,3-b]pyridin-4-yl)-1H-pyrazol-1-yl]azetidin-1-yl}-N-[(1S)-2,2,2-trifluoro-1-methylethyl]pyrazine-2-carboxamide] | < 10 | A (A means greater than or equal to 10) | 10 to 40
3 | N#CCC1(n2cc(-c3ccnc4[nH]ccc34)cn2)CN(c2cnc(C(=O)NCC(F)(F)F)cn2)C1 [Example 36, 5-{3-(Cyanomethyl)-3-[4-(1H-pyrrolo[2,3-b]pyridin-4-yl)-1H-pyrazol-1-yl]azetidin-1-yl}-N-(2,2,2-trifluoroethyl)pyrazine-2-carboxamide] | < 10 | A (A means greater than or equal to 10) | 10 to 40
4 | N#CCC1(n2cc(-c3ncnc4[nH]ccc34)cn2)CN(c2cc(F)c(C(=O)NCC(F)F)cc2F)C1 [Example 37, 4-{3-(Cyanomethyl)-3-[4-(7H-pyrrolo[2,3-d]pyrimidin-4-yl)-1H-pyrazol-1-yl]azetidin-1-yl}-N-(2,2-difluoroethyl)-2,5-difluorobenzamide] | < 10 | A (A means greater than or equal to 10) | ≤ 10
5 | N#CCC1(n2cc(-c3ncnc4[nH]ccc34)cn2)CN(c2ccc(C(=O)N[C@@H](C3CC3)C(F)(F)F)cc2)C1 [Example 38, 4-{3-(Cyanomethyl)-3-[4-(7H-pyrrolo[2,3-d]pyrimidin-4-yl)-1H-pyrazol-1-yl]azetidin-1-yl}-N-[(1S)-1-cyclopropyl-2,2,2-trifluoroethyl]benzamide] | < 10 | A (A means greater than or equal to 10) | 10 to 40
6 | C[C@@H](NC(=O)c1ccc(N2CC(CC#N)(n3cc(-c4ncnc5[nH]ccc45)cn3)C2)cc1F)C1CC1 [Example 39, 4-{3-(Cyanomethyl)-3-[4-(7H-pyrrolo[2,3-d]pyrimidin-4-yl)-1H-pyrazol-1-yl]azetidin-1-yl}-N-[(1R)-1-cyclopropylethyl]-2-fluorobenzamide] | < 10 | A (A means greater than or equal to 10) | 10 to 40

Next, values leading:

Row | IC50 [1] [nM] | JAK2/JAK1 [2] | IC50 [3] [nM] | Compound
7 | < 10 | A (A means greater than or equal to 10) | 10 to 40 | N#CCC1(n2cc(-c3ccnc4[nH]ccc34)cn2)CN(c2ccc(C(=O)NC3(C(F)(F)F)CC3)nc2)C1 [Example 40, 5-{3-(Cyanomethyl)-3-[4-(1H-pyrrolo[2,3-b]pyridin-4-yl)-1H-pyrazol-1-yl]azetidin-1-yl}-N-[1-(trifluoromethyl)cyclopropyl]pyridine-2-carboxamide]
8 | < 10 | A (A means greater than or equal to 10) | 10 to 40 | C[C@H](NC(=O)c1cnc(N2CC(CC#N)(n3cc(-c4ccnc5[nH]ccc45)cn3)C2)cn1)C1CC1 [Example 41, 5-{3-(Cyanomethyl)-3-[4-(1H-pyrrolo[2,3-b]pyridin-4-yl)-1H-pyrazol-1-yl]azetidin-1-yl}-N-[(1S)-1-cyclopropylethyl]pyrazine-2-carboxamide]
9 | < 10 | A (A means greater than or equal to 10) | 10 to 40 | N#CCC1(n2cc(-c3ccnc4[nH]ccc34)cn2)CN(c2cnc(C(=O)N[C@@H](C3CC3)C(F)(F)F)cn2)C1 [Example 42, 5-{3-(Cyanomethyl)-3-[4-(1H-pyrrolo[2,3-b]pyridin-4-yl)-1H-pyrazol-1-yl]azetidin-1-yl}-N-[(1S)-1-cyclopropyl-2,2,2-trifluoroethyl]pyrazine-2-carboxamide]
